Reference: US11497212B2, “Substituted thiophenyl uracils, salts thereof and the use thereof as herbicidal agents” (Syngenta Crop Protection AG, priority 2017, dated 2022)

Columns and labels:
Assay type in all cases: in vivo
[1] = tested on: Zea mays; assay: Crop compatibility post-emergence (greenhouse pot trial)
How it was run: (§1)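 Crops grown in sandy loam in greenhouse, sprayed at one-leaf stage (2–3 weeks after sowing) with WP or EC formulations in water plus 0.5% additive, 600 L/ha. Damage scored visually after about 3 weeks versus untreated controls, 0% = like control, 100% = dead.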

[2] = tested on: Oryza sativa; assay: as above; conditions: application rate 20 g/ha
How it was run: as §1

[3] = tested on: Triticum aestivum; assay: as above
How it was run: as §1

[4] = tested on: Viola tricolor; assay: Herbicidal action pre-emergence (greenhouse pot trial); conditions: scored after about 3 weeks
From the text: (§2) Seeds of mono- and dicotyledonous weeds and crop plants were laid out in plastic or organic plant pots and covered with soil. The compounds of the invention formulated in the form of wettable powders (WP) or emulsion concentrates (EC) were then applied to the surface of the covering soil as an aqueous suspension or emulsion with addition of 0.5% additive at a water application rate equivalent to 600 L/ha. After the treatment, the pots were placed in a greenhouse and kept under good growth conditions for the test plants. After about 3 weeks, the efficacy of the preparations was scored visually as a percentage by comparison with untreated controls. For example, 100% efficacy=plants have died, 0% efficacy=like control plants. Tables B1 to B16 below show the efficacies of selected compounds of the general formula (I) according to tables I.1 to I.60 on various harmful plants and an application rate corresponding to 320 g/ha or lower that were obtained by the aforementioned trial method.

[5] = tested on: Setaria viridis; assay: as above; conditions: scored after about 3 weeks
From the text: as §2

[6] = tested on: Digitaria sanguinalis; assay: as above; conditions: application rate 80 g/ha
From the text: as §2

[7] = tested on: Abutilon theophrasti; assay: as above; conditions: scored after about 3 weeks
From the text: as §2

[8] = tested on: Stellaria media; assay: as above; conditions: scored after about 3 weeks
From the text: as §2

[9] = tested on: Amaranthus retroflexus; assay: as above; conditions: scored after about 3 weeks
From the text: as §2

[10] = tested on: Matricaria inodora; assay: as above; conditions: scored after about 3 weeks
From the text: as §2

[11] = tested on: Veronica persica; assay: as above
From the text: as §2

[12] = tested on: Pharbitis purpurea; assay: as above
From the text: as §2

[13] = tested on: Viola tricolor; assay: Herbicidal action post-emergence (greenhouse pot trial)
How it was run: (§3)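 Sowing in sandy loam, then 2–3 weeks of controlled greenhouse growth. Next, one-leaf-stage plants received a foliar spray of the WP- or EC-formulated compound with 0.5% additive (600 L/ha water, application rate of 80 g/ha or below). Finally, after about 3 weeks under optimal conditions, effect was judged by eye against controls.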

[14] = tested on: Setaria viridis; assay: as above; conditions: scored visually after about 3 weeks vs untreated controls
How it was run: as §3

[15] = tested on: Digitaria sanguinalis; assay: as above; conditions: application rate 20 g/ha
How it was run: as §3

[16] = tested on: Abutilon theophrasti; assay: as above; conditions: scored visually after about 3 weeks vs untreated controls
How it was run: as §3

[17] = tested on: Polygonum convolvulus; assay: as above; conditions: scored visually after about 3 weeks vs untreated controls
How it was run: as §3

[18] = tested on: Stellaria media; assay: as above; conditions: application rate 20 g/ha, scored visually after about 3 weeks vs untreated controls
How it was run: as §3

[19] = tested on: Amaranthus retroflexus; assay: as above; conditions: application rate 20 g/ha, scored visually after about 3 weeks vs untreated controls
How it was run: as §3

[20] = tested on: Matricaria inodora; assay: as above; conditions: scored visually after about 3 weeks vs untreated controls
How it was run: as §3

[21] = tested on: Echinochloa crus-galli; assay: as above; conditions: application rate 20 g/ha, scored visually after about 3 weeks vs untreated controls
How it was run: as §3

[22] = tested on: Veronica persica; assay: as above; conditions: application rate 20 g/ha
How it was run: as §3

[23] = tested on: Pharbitis purpurea; assay: as above
How it was run: as §3

[24] = tested on: Zea mays; assay: Crop compatibility pre-emergence (greenhouse pot trial); conditions: application rate 80 g/ha, effect vs untreated controls
From the text: as §2, with “plants.” for “plants. Tables B1 to B16 below show the efficacies of selected compounds of the general formula (I) according to tables I.1 to I.60 on various harmful plants and an application rate corresponding to 320 g/ha or lower that were obtained by the aforementioned trial method.”
(§4) Crop compatibilities were also scored correspondingly.
(§5) The effects observed are reported here on selected crop plants by comparison with the untreated controls (values in %).

[25] = tested on: Glycine max; assay: Crop compatibility post-emergence (greenhouse pot trial)
How it was run: as §1

[26] = tested on: Lolium rigidum; assay: Herbicidal action pre-emergence (greenhouse pot trial); conditions: application rate 320 g/ha
From the text: as §2

[27] = tested on: Echinochloa crus-galli; assay: as above; conditions: application rate 320 g/ha, scored after about 3 weeks
From the text: as §2

[28] = tested on: Avena fatua; assay: as above; conditions: application rate 320 g/ha
From the text: as §2

[29] = tested on: Alopecurus myosuroides; assay: as above; conditions: application rate 320 g/ha, scored after about 3 weeks
From the text: as §2

[30] = tested on: Glycine max; assay: Crop compatibility pre-emergence (greenhouse pot trial); conditions: application rate 80 g/ha, effect vs untreated controls
From the text: as §2, with “plants.” for “plants. Tables B1 to B16 below show the efficacies of selected compounds of the general formula (I) according to tables I.1 to I.60 on various harmful plants and an application rate corresponding to 320 g/ha or lower that were obtained by the aforementioned trial method.”
as §4, §5

[31] = tested on: Hordeum murinum; assay: Herbicidal action post-emergence (greenhouse pot trial); conditions: application rate 20 g/ha, scored visually after about 3 weeks vs untreated controls
How it was run: as §3

[32] = tested on: Alopecurus myosuroides; assay: as above; conditions: application rate 20 g/ha, scored visually after about 3 weeks vs untreated controls
How it was run: as §3

CC(Sc1cc(-n2c(=O)cc(C(F)(F)F)n(C)c2=O)c(F)cc1Cl)C(=O)OCC1CCSC1 (stereo not drawn) [I.1-82]
0%: Triticum aestivum (Efficacy in %) ([3]; application rate 5 g/ha) | Zea mays (Efficacy in %) [24]
100%: Viola tricolor (Efficacy in %) ([4]; application rate 80 g/ha) | Setaria viridis (Efficacy in %) ([5]; application rate 80 g/ha) | Abutilon theophrasti (Efficacy in %) ([7]; application rate 80 g/ha) | Stellaria media (Efficacy in %) ([8]; application rate 80 g/ha) | Amaranthus retroflexus (Efficacy in %) ([9]; application rate 80 g/ha) | Matricaria inodora (Efficacy in %) ([10]; application rate 80 g/ha) | Veronica persica (Efficacy in %) ([11]; application rate 80 g/ha) | Pharbitis purpurea (Efficacy in %) ([12]; application rate 80 g/ha) | Viola tricolor (Efficacy in %) ([13]; application rate 20 g/ha) | Digitaria sanguinalis (Efficacy in %) [15] | Abutilon theophrasti (Efficacy in %) ([16]; application rate 20 g/ha) | Polygonum convolvulus (Efficacy in %) ([17]; application rate 20 g/ha) | Amaranthus retroflexus (Efficacy in %) [19] | Matricaria inodora (Efficacy in %) ([20]; application rate 20 g/ha) | Echinochloa crus-galli (Efficacy in %) [21] | Veronica persica (Efficacy in %) [22] | Pharbitis purpurea (Efficacy in %) ([23]; application rate 20 g/ha)
80%: Digitaria sanguinalis (Efficacy in %) [6] | Setaria viridis (Efficacy in %) ([14]; application rate 20 g/ha) | Stellaria media (Efficacy in %) [18]
10%: Oryza sativa (Efficacy in %) [2]
20%: Zea mays (Efficacy in %) ([1]; application rate 20 g/ha)

CC(Sc1cc(-n2c(=O)cc(C(F)(F)F)n(C)c2=O)c(F)cc1Cl)C(=O)NC1(C#N)CCSC1 (stereo not drawn) [I.1-340]
80%: Avena fatua (Efficacy in %) [28] | Setaria viridis (Efficacy in %) ([14]; application rate 80 g/ha)
90%: Alopecurus myosuroides (Efficacy in %) [29]
100%: Lolium rigidum (Efficacy in %) [26] | Viola tricolor (Efficacy in %) ([4]; application rate 320 g/ha) | Setaria viridis (Efficacy in %) ([5]; application rate 320 g/ha) | Abutilon theophrasti (Efficacy in %) ([7]; application rate 320 g/ha) | Stellaria media (Efficacy in %) ([8]; application rate 320 g/ha) | Amaranthus retroflexus (Efficacy in %) ([9]; application rate 320 g/ha) | Matricaria inodora (Efficacy in %) ([10]; application rate 320 g/ha) | Echinochloa crus-galli (Efficacy in %) [27] | Veronica persica (Efficacy in %) ([11]; application rate 320 g/ha) | Pharbitis purpurea (Efficacy in %) ([12]; application rate 320 g/ha) | Viola tricolor (Efficacy in %) ([13]; application rate 80 g/ha) | Abutilon theophrasti (Efficacy in %) ([16]; application rate 80 g/ha) | Polygonum convolvulus (Efficacy in %) ([17]; application rate 80 g/ha) | Matricaria inodora (Efficacy in %) ([20]; application rate 80 g/ha) | Pharbitis purpurea (Efficacy in %) ([23]; application rate 80 g/ha)
0%: Zea mays (Efficacy in %) ([1]; application rate 80 g/ha) | Zea mays (Efficacy in %) [24]
20%: Triticum aestivum (Efficacy in %) ([3]; application rate 20 g/ha) | Glycine max (Efficacy in %) ([25]; application rate 20 g/ha) | Glycine max (Efficacy in %) [30]
10%: Oryza sativa (Efficacy in %) [2]

CC(C)CC(Sc1cc(-n2c(=O)cc(C(F)(F)F)n(C)c2=O)c(F)cc1Cl)C(=O)NCC1CCCO1 (stereo not drawn) [I.4-221]
20%: Glycine max (Efficacy in %) ([25]; application rate 5 g/ha)
100%: Viola tricolor (Efficacy in %) ([13]; application rate 20 g/ha) | Setaria viridis (Efficacy in %) ([14]; application rate 20 g/ha) | Digitaria sanguinalis (Efficacy in %) [15] | Abutilon theophrasti (Efficacy in %) ([16]; application rate 20 g/ha) | Polygonum convolvulus (Efficacy in %) ([17]; application rate 20 g/ha) | Amaranthus retroflexus (Efficacy in %) [19] | Matricaria inodora (Efficacy in %) ([20]; application rate 20 g/ha) | Veronica persica (Efficacy in %) [22] | Pharbitis purpurea (Efficacy in %) ([23]; application rate 20 g/ha)
80%: Stellaria media (Efficacy in %) [18] | Hordeum murinum (Efficacy in %) [31] | Echinochloa crus-galli (Efficacy in %) [21]

CC(C)C(Sc1cc(-n2c(=O)cc(C(F)(F)F)n(C)c2=O)c(F)cc1Cl)C(=O)OCC1CCCO1 (stereo not drawn) [I.6-71]
20%: Triticum aestivum (Efficacy in %) ([3]; application rate 20 g/ha)
100%: Viola tricolor (Efficacy in %) ([13]; application rate 20 g/ha) | Setaria viridis (Efficacy in %) ([14]; application rate 20 g/ha) | Digitaria sanguinalis (Efficacy in %) [15] | Abutilon theophrasti (Efficacy in %) ([16]; application rate 20 g/ha) | Polygonum convolvulus (Efficacy in %) ([17]; application rate 20 g/ha) | Stellaria media (Efficacy in %) [18] | Amaranthus retroflexus (Efficacy in %) [19] | Matricaria inodora (Efficacy in %) ([20]; application rate 20 g/ha) | Veronica persica (Efficacy in %) [22] | Pharbitis purpurea (Efficacy in %) ([23]; application rate 20 g/ha)
90%: Echinochloa crus-galli (Efficacy in %) [21]
80%: Hordeum murinum (Efficacy in %) [31] | Alopecurus myosuroides (Efficacy in %) [32]
